Where a name gives a salt, the structure may show the parent alone.
Molecular target: human FLAP (Homo sapiens (Human), UniProt P20292)
Experiment: FLAP binding assay (HTRF format)
Settings: human FLAP wild type membranes, HTRF format; Table 6 (additional runs)
Experimental: The ability of the compounds of the present invention to treat a FLAP-mediated disease and/or disorder, or associated symptoms or complications thereof, was determined using the following procedures. Binding assay data represent the average value obtained from two different assay plates, with samples run in duplicate on each plate. Human whole blood assay data represent a single replicate on an assay plate using whole blood from at least one healthy donor.
Data are expressed as a HTRF ratio.

Chain of human FLAP (P20292 whole entry): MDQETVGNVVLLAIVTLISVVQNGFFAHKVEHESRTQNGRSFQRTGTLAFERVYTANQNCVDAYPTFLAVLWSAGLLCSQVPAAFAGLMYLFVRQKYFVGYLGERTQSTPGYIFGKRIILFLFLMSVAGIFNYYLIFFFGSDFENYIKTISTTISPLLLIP

Ki [µM]	SMILES
0.0008	Nc1cnc(-c2ccc(C3CCC3)c(Oc3nccc(-c4cccs4)n3)c2F)cn1 [Example 91, 5-{4-Cyclobutyl-2-fluoro-3-[(4-thiophen-2-ylpyrimidin-2-yl)oxy]phenyl}pyrazin-2-amine]
0.0052	COc1ccnc(Oc2c(C3CCC3)ccc(-c3cnc(N)cn3)c2F)n1 [Example 93, 5-{4-Cyclobutyl-2-fluoro-3-[(4-methoxypyrimidin-2-yl)oxy]phenyl}pyrazin-2-amine]
0.0445	COc1cnc(Oc2c(C3CCC3)ccc(-c3cnc(N)cn3)c2F)nc1 [Example 94, 5-{4-Cyclobutyl-2-fluoro-3-[(5-methoxypyrimidin-2-yl)oxy]phenyl}pyrazin-2-amine]
0.0047	CS(=O)(=O)c1ccnc(Oc2c(C3CCC3)ccc(-c3cnc(N)cn3)c2F)n1 [Example 95, 5-(4-Cyclobutyl-2-fluoro-3-{[4-(methylsulfonyl)pyrimidin-2-yl]oxy}phenyl)pyrazin-2-amine]
0.0055	COc1cc(Oc2c(C3CCC3)ccc(-c3cnc(N)cn3)c2F)nc(N)n1 [Example 99, 4-[3-(5-Aminopyrazin-2-yl)-6-cyclobutyl-2-fluorophenoxy]-6-methoxypyrimidin-2-amine]
0.0012	COc1nc(N)cc(Oc2c(C3CCC3)ccc(-c3cnc(N)cn3)c2F)n1 [Example 100, 6-[3-(5-Aminopyrazin-2-yl)-6-cyclobutyl-2-fluorophenoxy]-2-methoxypyrimidin-4-amine]
0.0018	Nc1cnc(-c2ccc(C3CCC3)c(Oc3cccc(C(F)(F)F)n3)c2F)cn1 [Example 102, 5-(4-Cyclobutyl-2-fluor-3-{[6-(trifluoromethyl)pyridin-2-yl]oxy}phenyl)pyrazin-2-amine]
0.0183	Nc1cnc(-c2ccc(C3CCC3)c(Oc3ncc(C(F)(F)F)cn3)c2F)cn1 [Example 104, 5-(4-Cyclobutyl-2-fluoro-3-{[5-(trifluoromethyl)pyrimidin-2-yl]oxy}phenyl)pyrazin-2-amine]
0.0394	Nc1cnc(-c2ccc(C3CCC3)c(Oc3cnc(C(F)(F)F)cn3)c2F)cn1 [Example 105, 5-(4-Cyclobutyl-2-fluoro-3-{[5-(trifluoromethyl)pyrazin-2-yl]oxy}phenyl)pyrazin-2-amine]
0.0123	Nc1cnc(-c2ccc(C3CCC3)c(Oc3ccc(C(F)(F)F)nn3)c2F)cn1 [Example 106, 5-(4-Cyclobutyl-2-fluoro-3-{[6-(trifluoromethyl)pyridazin-3-yl]oxy}phenyl)pyrazin-2-amine]
0.0054	COC(=O)c1ccc(Oc2c(C3CCC3)ccc(-c3cnc(N)cn3)c2F)nc1 [Example 107, Methyl 6-[3-(5-aminopyrazin-2-yl)-6-cyclobutyl-2-fluorophenoxy]pyridine-3-carboxylate]
0.0281	N#Cc1ccc(Oc2c(C3CCC3)ccc(-c3cnc(N)cn3)c2F)cn1 [Example 108, 5-[3-(5-Aminopyrazin-2-yl)-6-cyclobutyl-2-fluorophenoxy]pyridine-2-carbonitrile]
0.0112	N#Cc1cc(Oc2c(C3CCC3)ccc(-c3cnc(N)cn3)c2F)ccn1 [Example 109, 4-[3-(5-Aminopyrazin-2-yl)-6-cyclobutyl-2-fluorophenoxy]pyridine-2-carbonitrile]
0.0026	N#Cc1cccnc1Oc1c(C2CCC2)ccc(-c2cnc(N)cn2)c1F [Example 110, 2-[3-(5-Aminopyrazin-2-yl)-6-cyclobutyl-2-fluorophenoxy]pyridine-3-carbonitrile]
0.0024	N#Cc1cccc(Oc2c(C3CCC3)ccc(-c3cnc(N)cn3)c2F)n1 [Example 111, 6-[3-(5-Aminopyrazin-2-yl)-6-cyclobutyl-2-fluorophenoxy]pyridine-2-carbonitrile]
0.0136	N#Cc1ncccc1Oc1c(C2CCC2)ccc(-c2cnc(N)cn2)c1F [Example 112, 3-[3-(5-Aminopyrazin-2-yl)-6-cyclobutyl-2-fluorophenoxy]pyridine-2-carbonitrile]
0.0308	Nc1cnc(-c2ccc(C3CCC3)c(Oc3ccc(C(F)(F)F)cn3)c2F)cn1 [Example 113, 5-(4-Cyclobutyl-2-fluoro-3-{[5-(trifluoromethyl)pyridin-2-yl]oxy}phenyl)pyrazin-2-amine]
0.0537	Nc1cnc(-c2ccc(C3CCC3)c(Oc3ccc(S(F)(F)(F)(F)F)cc3)c2F)cn1 [Example 115, 5-{4-Cyclobutyl-2-fluoro-3-[4-(pentafluoro-lambda˜6˜-sulfanyl)phenoxy]phenyl}pyrazin-2-amine]
0.0066	Nc1cnc(-c2ccc(C3CCC3)c(Oc3nccc(N)n3)c2F)cn1 [Example 119, 2-[3-(5-Aminopyrazin-2-yl)-6-cyclobutyl-2-fluorophenoxy]pyrimidin-4-amine]

Ki [µM]	SMILES
0.0072	Nc1cnc(-c2ccc(C3CCC3)c(Oc3ncccc3C(F)(F)F)c2F)cn1 [Example 121, 5-(4-Cyclobutyl-2-fluoro-3-{[3-(trifluoromethyl)pyridin-2-yl]oxy}phenyl)pyrazin-2-amine]
0.0037	Nc1cnc(-c2ccc(C3CCC3)c(Oc3ncccc3Cl)c2F)cn1 [Example 122]
0.0028	Nc1cnc(-c2ccc(C3CCC3)c(Oc3ccnc(C(F)(F)F)n3)c2F)cn1 [Example 124, 5-(4-Cyclobutyl-2-fluoro-3-{[2-(trifluoromethyl)pyrimidin-4-yl]oxy}phenyl)pyrazin-2-amine]
0.0046	Cc1nccc(Oc2c(C3CCC3)ccc(-c3cnc(N)cn3)c2F)n1 [Example 134, 5-{4-Cyclobutyl-2-fluoro-3-[(2-methylpyrimidin-4-yl)oxy]phenyl}pyrazin-2-amine]
0.0043	Nc1cnc(-c2ccc(C3CCC3)c(Oc3ccnc(Cl)n3)c2F)cn1 [Example 137, 5-{3-[(2-Chloropyrimidin-4-yl)oxy]-4-cyclobutyl-2-fluorophenyl}pyrazin-2-amine]
0.0055	Nc1cnc(-c2ccc(C3CCC3)c(Oc3cc(C4CC4)ncn3)c2F)cn1 [Example 141, 5-{4-Cyclobutyl-3-[(6-cyclopropylpyrimidin-4-yl)oxy]-2-fluorophenyl}pyrazin-2-amine]
0.0176	Nc1cnc(-c2ccc(C3CCC3)c(Oc3ccc(C(=O)O)cn3)c2F)cn1 [Example 154, 6-[3-(5-Aminopyrazin-2-yl)-6-cyclobutyl-2-fluorophenoxy]pyridine-3-carboxylic acid]
0.0039	N#Cc1nc(N)cnc1-c1ccc(C2CCC2)c(OCc2cccc(C(=O)O)c2)c1F [Example 174, 3-{[3-(5-Amino-3-cyanopyrazin-2-yl)-6-cyclobutyl-2-fluorophenoxy]methyl}benzoic acid]
0.0085	COc1cc(Oc2c(C(C)(C)C)ccc(-c3cnc(N)cn3)c2F)ncn1 [Example 204, 5-{4-tert-Butyl-2-fluor-3-[(6-methoxypyrimidin-4-yl)oxy]phenyl}pyrazin-2-amine]
0.705	CC(C)(C)c1ccc(-c2cnc(N)cn2)cc1OCc1ccccc1 [Example 215, 5-[3-(Benzyloxy)-4-tert-butylphenyl]pyrazin-2-amine]
0.714	Nc1cnc(-c2ccc(Cl)c(OCc3ccccc3)c2F)cn1 [Example 216, 5-[3-(Benzyloxy)-4-chloro-2-fluorophenyl]pyrazin-2-amine]
1.04	Nc1cnc(-c2ccc(C3CCC3)c(OCc3ccccc3)c2)cn1 [Example 217, 5-[3-(Benzyloxy)-4-cyclobutylphenyl]pyrazin-2-amine]
0.282	CC(C)(C)OC(=O)N1CCCC(COc2c(C3CCC3)ccc(-c3cnc(N)cn3)c2F)C1 (stereo not drawn) [Example 249, tert-Butyl 3-((3-(5-aminopyrazin-2-yl)-6-cyclobutyl-2-fluorophenoxy)methyl)piperidine-1-carboxylate]
0.101	Nc1cnc(-c2ccc(C3CCC3)c(OCC3CCOCC3)c2F)cn1 [Example 264, 5-[4-Cyclobutyl-2-fluoro-3-(tetrahydro-2H-pyran-4-ylmethoxy)phenyl]pyrazin-2-amine]
0.868	Nc1cnc(-c2ccc(C3CCC3)c(OCC3CCNCC3)c2F)cn1 [Example 298, 5-[4-Cyclobutyl-2-fluoro-3-(piperidin-4-ylmethoxy)phenyl]pyrazin-2-amine hydrogen chloride salt]
1.36	CCc1ccc(-c2cnc(N)cn2)c(F)c1Oc1ncccn1 [Example 316, 5-[4-Ethyl-2-fluoro-3-(pyrimidin-2-yloxy)phenyl]pyrazin-2-amine]
0.0365	Nc1cnc(-c2ccc(C3CCCCC3)c(Oc3ncccn3)c2F)cn1 [Example 320, 5-(4-Cyclohexyl-2-fluoro-3-(pyrimidin-2-yloxy)phenyl)pyrazin-2-amine]
0.421	CCc1ccc(-c2cnc(N)cn2)c(F)c1O [Example 333, 3-(5-Aminopyrazin-2-yl)-6-ethyl-2-fluorophenol]
0.65	Nc1cnc(-c2ccc(C3CCC3)c(OCc3ccc(Br)cc3)c2F)cn1 [Example 340, 5-{3-[(4-Bromobenzyl)oxy]4-cyclobutyl-2-fluorophenyl}pyrazin-2-amine]

SMILES	Ki [µM]
CC(C)CNc1nccc(Oc2c(C3CCC3)ccc(-c3cnc(N)cn3)c2F)n1 [Example 261, 4-(3-(5-Aminopyrazin-2-yl)-6-cyclobutyl-2-fluorophenoxy)-N-isobutylpyrimidin-2-amine trifluoroacetic acid salt]	0.0022
